Values of other authors in patent publication US8470377B2, “Composition and method for reducing food intake” (Natures Remedies Ltd., priority 2009, dated 2013).

What was measured:
[1] = for food intake and appetite ratings: literature studies
[2] = tested on: GLP-1; details: approximately 20 g per day for 7 days, human volunteers

Compound	food intake and appetite ratings [1]	further results
methylcellulose	not significantly reduced	
O=C(O)CC(O)(C(=O)O)C(O)C(=O)O (centres unmarked) [HCA-SX, hydroxycitric acid]		decrease in food intake ([1]; human studies): 4%
beta-glucan	not significantly reduced	
oligofructose		reduction in total intake ([1]; human studies): 5%; serum GLP-1 levels [2]: increased
sodium alginate		reduction in energy intake ([1]; human studies): 7%
pectin	not significantly reduced	
fructooligosaccharides	not significantly reduced	
